The molecules below were run on GM3 (assay: GM3 Elisa assay). Conditions: 48 h, Table 1; B16-FO cells, 2 days incubation; read-out: IC50_uM_Mean.
Assay type: cell-based
Method: B16-FO cells from ATCC (American Tissue Culture Collection) were grown in DMEM media (ATCC) with 10% Fetal Bovine Serum (Hyclone) and Pen/Step/Glutamine (Biowhittaker). 4000 cells per well were plated on collagen coated plates (BD) and allowed to attach for 6 hours in an incubator (37 degrees, 5% CO2). After 6 hours the compounds and controls were added to the wells, the plates mixed and returned to the incubator for 2 days. Day of assay the cells were fixed for 20 minutes with 1% formaldehyde and then washed with Tris Buffered Saline (TBS) 3 times, 150 μl of TBS was left in the wells and 50 μl of goat serum (Invitrogen) was added, the plates mixed and incubated for 1 hour at room temperature. The plates were flicked and the cells incubated with the monoclonal Antibody to GM3 (NeuAc) (Cosmo) for 45 minutes as room temperature. The plates were then washed 3 times with TBS, leaving 150 μl of TBS in the wells and Peroxidase AffinPure F (ab′) 2 frag Gt Anti-mouse IgM, μ Chain Specific (Jackson Immuno Research) was added in 50 μl, the plates mixed and incubated for 45 minutes at room temperature. The plates were washed 3 times with TBS, flicked and blotted and 100 μl of Quantablu (Pierce) was added to the wells and incubated for 1 hour then read on a Fluorometer at Ex 325 and Em 420. The data was then analyzed using standard programs.

IC50 | SMILES
≤ 100 nM | O=C(COc1ccc(Cl)cc1)N[C@H](CN1CCCC1)[C@H](O)c1ccc2c(c1)OCCO2 [Compound 83, 2-(4-chlorophenoxy)-N-((1R,2R)-1-(2,3-dihydrobenzo[β][1,4]dioxin-6-yl)-1-hydroxy-3-(pyrrolidin-1-yl)propan-2-yl)acetamide]
≤ 100 nM | O=C(CCCc1nc2ccccc2s1)NC(CN1CCCC1)[C@H](O)c1ccc2c(c1)OCCO2 (stereo partly drawn) [Compound 101, 4-(benzo[d]thiazol-2-yl)-N-((1R,2R)-1-(2,3-dihydrobenzo[β][1,4]dioxin-6-yl)-1-hydroxy-3-(pyrrolidin-1-yl)propan-2-yl)butanamide]
100 to 1000 nM | CCC(=O)c1ccc(OCCC(=O)N[C@H](CN2CCCC2)[C@H](O)c2ccc3c(c2)OCCO3)cc1 [Compound 189, N-((1R,2R)-1-(2,3-dihydrobenzo[b][1,4]dioxin-6-yl)-1-hydroxy-3-(pyrrolidin-1-yl)propan-2-yl)-3-(4-propionylphenoxy)propanamide (2R,3R)-2,3-dihydroxysuccinate]
≤ 100 nM | O=C(NCc1ccc(Br)cc1)N[C@H](CN1CCCC1)[C@H](O)c1ccc2c(c1)OCCO2 [Compound 40, 1-(4-bromobenzyl)-3-((1R,2R)-1-(2,3-dihydrobenzo[β][1,4]dioxin-6-yl)-1-hydroxy-3-(pyrrolidin-1-yl)propan-2-yl)urea]
≤ 100 nM | O=C(CCOc1ccccc1)N[C@H](CN1CCCC1)[C@H](O)c1ccc2c(c1)OCCO2 [Compound 27, N-((1R,2R)-1-(2,3-dihydrobenzo[β][1,4]dioxin-6-yl)-1-hydroxy-3-(pyrrolidin-1-yl)propan-2-yl)-3-phenoxypropanamide]
≤ 100 nM | O=C(CCc1ccc(C(F)(F)F)cc1)N[C@H](CN1CCCC1)[C@H](O)c1ccc2c(c1)OCCO2 [Compound 96, N-((1R,2R)-1-(2,3-dihydrobenzo[β][1,4]dioxin-6-yl)-1-hydroxy-3-(pyrrolidin-1-yl)propan-2-yl)-3-(4-(trifluoromethyl)phenyl)propanamide]
100 to 1000 nM | O=C(Nc1cccc(C(F)(F)F)c1)N[C@H](CN1CCCC1)[C@H](O)c1ccc2c(c1)OCCO2 [Compound 68, 1-((1R,2R)-1-(2,3-dihydrobenzo[β][1,4]dioxin-6-yl)-1-hydroxy-3-(pyrrolidin-1-yl)propan-2-yl)-3-(3-(trifluoromethyl)phenyl)urea]
100 to 1000 nM | C[C@H](NC(=O)N[C@H](CN1CCCC1)[C@H](O)c1ccc2c(c1)OCCO2)c1cccc2ccccc12 [Compound 71, 1-((1R,2R)-1-(2,3-dihydrobenzo [β][1,4]dioxin-6-yl)-1-hydroxy-3-(pyrrolidin-1-yl)propan-2-yl)-3-((S)-1-(naphthalen-1-yl)ethyl)urea]
≤ 100 nM | O=C(COc1ccc(Cl)c(Cl)c1)N[C@H](CN1CCCC1)[C@H](O)c1ccc2c(c1)OCCO2 [Compound 87, 2-(3,4-dichlorophenoxy)-N-((1R,2R)-1-(2,3-dihydrobenzo[β][1,4]dioxin-6-yl)-1-hydroxy-3-(pyrrolidin-1-yl)propan-2-yl)acetamide]
100 to 1000 nM | O=C(Nc1ccc2ccccc2c1)N[C@H](CN1CCCC1)[C@H](O)c1ccc2c(c1)OCCO2 [Compound 69, 1-((1R,2R)-1-(2,3-dihydrobenzo[β][1,4]dioxin-6-yl)-1-hydroxy-3-(pyrrolidin-1-yl)propan-2-yl)-3-(naphthalen-2-yl)urea]

Same assay, conditions: 48 h, Table 2; B16-FO cells, 2 days incubation; read-out: IC50_uM_Mean

IC50 | SMILES
≤ 100 nM | CCCCCCCCCCCCCCCC(=O)N[C@H](CN1CCCC1)[C@H](O)c1ccc(O)cc1 [Compound 309]
≤ 100 nM | CC(C)Oc1ccc(C(=O)CCCC(=O)N[C@H](CN2CCCC2)[C@H](O)c2ccc3c(c2)OCO3)cc1 [Compound 265, N-((1R,2R)-1-(benzo[ε][1,3]-dioxol-5-yl)-1-hydroxy-3-(pyrrolidin-1-yl)propan-2-yl)-5-(4-isopropoxyphenyl)-5-oxopentanamide (2S,3S)-2,3-dihydroxysuccinate]
100 to 1000 nM | CCCCCCCC(=O)N[C@H](CN1CCCC1)[C@H](OC)c1ccc2c(c1)OCCO2 [Compound 315]
1000 to 3000 nM | O=C(NCCc1cccs1)N[C@H](CN1CCCC1)[C@H](O)c1ccc2c(c1)OCCO2 [Compound 287, 1-((1R,2R)-1-(2,3-dihydrobenzo[β][1,4]dioxin-6-yl)-1-hydroxy-3-(pyrrolidin-1-yl)propan-2-yl)-3-(2-(thiophen-2-yl)ethyl)urea]
100 to 1000 nM | COc1ccc(CCCC(=O)N[C@H](CN2CCCC2)[C@H](O)c2ccc(OC)cc2)cc1 [Compound 263]
3000 to 10000 nM | COc1ccc(OCCC(=O)N[C@H](CN2CCOCC2)[C@H](O)c2ccc3c(c2)OCCO3)cc1 [Compound 257, N-((1R,2R)-1-(2,3-dihydrobenzo[β][1,4]dioxin-6-yl)-1-hydroxy-3-morpholinopropan-2-yl)-3-(4-methoxyphenoxy)propanamide]
1000 to 3000 nM | CCCCCCCC(=O)N[C@H](CN1CCCC1)[C@H](O)c1ccc(OC)c(OC)c1 [Compound 321]
3000 to 10000 nM | COc1ccc([C@@H](O)[C@@H](CN2CCCC2)NC(=O)CCCCCC(C)(C)OC)cc1OC [Compound 277]
≤ 100 nM | COc1ccc([C@@H](O)[C@@H](CN2CCCC2)NC(=O)CCCCCC(=O)c2ccc(OC(C)C)cc2)cc1 [Compound 271]

Same assay, conditions: Table 3 (IC 50 Values); B16-FO cells; read-out: IC50_uM_Mean

SMILES | IC50
COc1ccc(OCCC(=O)N[C@H](CN2CCCC2)[C@H](O)c2ccc(OC)c(C)c2)cc1 [Compound 391] | 100 to 1000 nM
COc1ccc(C(=O)CCCCC(=O)N[C@H](CN2C3CCC2CC3)[C@H](O)c2ccc(OC(C)C)cc2)cc1 [Compound 376] | ≤ 100 nM
CCCCCCCC(=O)N[C@H](CN1CCCC1)[C@H](O)c1ccc(OC)c(F)c1 [Compound 340] | 100 to 1000 nM
COc1ccc(C(=O)CCCCC(=O)N[C@H](CN2CC[C@H](O)C2)[C@H](O)c2ccc(OC(C)C)cc2)cc1 [Compound 375] | 100 to 1000 nM
O=C(N[C@H](CN1CCCC1)[C@H](O)c1ccc(Cl)cc1)OCc1ccccc1 [Compound 379] | 100 to 1000 nM

The next lines start with the values.

IC50 | SMILES
3000 to 10000 nM | CCCCCCCC(=O)N[C@H](CN1C(C)CCCC1C)[C@H](O)c1ccc2c(c1)OCCO2 (stereo partly drawn) [Compound 595]
3000 to 10000 nM | CCCCCCCC(=O)N[C@H](CN1CCCC1(C)C)[C@H](O)c1ccc2c(c1)OCCO2 [Compound 553]
1000 to 3000 nM | COc1ccc(C(=O)CCCCC(=O)N[C@H](CN2CCCC2)[C@H](O)c2ccc(C(F)(F)F)cc2)cc1 [Compound 491]
100 to 1000 nM | O=C(CCCCOC1CCOCC1)N[C@H](CN1CC[C@@H](F)C1)[C@H](O)c1ccc(OCc2ccccc2)cc1 [Compound 575]
≤ 100 nM | COCCOc1ccc(C(=O)CCCCC(=O)N[C@H](CN2CCCC2)[C@H](O)c2ccc(OC(C)C)cc2)cc1 [Compound 453]
≤ 100 nM | COc1ccc(OCCCC(=O)N[C@H](CN2CC[C@H](O)C2)[C@H](O)c2ccc(OC(C)C)cc2)cc1 [Compound 733]
100 to 1000 nM | COCCOCCOc1ccc([C@@H](O)[C@@H](CN2CCCC2)NC(=O)CCCCC(=O)c2ccc(OC)cc2)cc1 [Compound 415]
≤ 100 nM | O=C(CCCCCC(=O)c1ccc(F)cc1)N[C@H](CN1CCCC1)[C@H](O)c1ccc2c(c1)OCCO2 [Compound 628]
3000 to 10000 nM | O=C(CCC(=O)N[C@H](CN1CCCC1)[C@H](O)c1ccc2c(c1)OCCO2)NC1CCCCC1 [Compound 689]
≤ 100 nM | COc1ccc(C(=O)CCCCCC(=O)N[C@H](CN2CC[C@H](O)C2)[C@H](O)c2ccc3c(c2)OCCO3)cc1 [Compound 532]
100 to 1000 nM | COc1ccc(C(=O)CCCCC(=O)N[C@H](CN2CCCC2)[C@H](O)c2ccccc2OC)cc1 [Compound 698]
1000 to 3000 nM | O=C(CCCn1cccn1)N[C@H](CN1CCCC1)[C@H](O)c1ccc2c(c1)OCCO2 [Compound 643]
1000 to 3000 nM | CCCCCCCC(=O)N[C@H](CN1CCC1)[C@H](O)c1ccc2c(c1)OCCO2 [Compound 594]
3000 to 10000 nM | COc1ccc(OCCC(=O)N[C@H](CN2CCCC(C)C2)[C@H](O)c2ccc3c(c2)OCCO3)cc1 (stereo partly drawn) [Compound 608]
3000 to 10000 nM | CCCOC1CC(C[C@@H](NC(=O)CCOc2ccc(OC)cc2)[C@H](O)c2ccc3c(c2)OCCO3)C1 (stereo partly drawn) [Compound 597]
≤ 100 nM | COc1ccc(C(=O)CCCCCC(=O)N[C@H](CN2CCCC2)[C@H](O)c2ccc(OCc3ccccc3)cc2)cc1 [Compound 704]
3000 to 10000 nM | COc1ccc(C(=O)CCCCCC(=O)N[C@H](CN(CC2CC2)CC2CC2)[C@H](O)c2ccc3c(c2)OCCO3)cc1 [Compound 464]
3000 to 10000 nM | O=C(CCCNC(=O)NC1CCCCC1)N[C@H](CN1CCCC1)[C@H](O)c1ccc2c(c1)OCCO2 [Compound 691]
3000 to 10000 nM | CCCCCCCC(=O)N[C@H](CN1CCCC1)[C@H](O)c1cc(OC)c(OC)c(OC)c1 [Compound 669]
3000 to 10000 nM | N#CCCCCCC(=O)N[C@H](CN1CCCC1)[C@H](O)c1ccc2c(c1)OCCO2 [Compound 632]
≤ 100 nM | CCCCCCCC(=O)N[C@H](CN1CCCC1)[C@H](O)c1ccc(OCc2ccccc2)cc1 [Compound 703]
3000 to 10000 nM | O=C(Cc1ccc(OC(F)(F)F)cc1)NC(CN1CCCC1)[C@H](O)c1ccc(Cl)s1 (stereo partly drawn) [Compound 492]
1000 to 3000 nM | CCCCCCCCCCCCCCCC(=O)N[C@H](CNC1CCCC1)[C@H](O)c1ccc2c(c1)OCCO2 [Compound 681]
3000 to 10000 nM | CCCCCCCC(=O)N[C@@H](CN1CCCC1)[C@@H](O)c1ccc2c(c1)OCCO2 [Compound 677]

Reference: patent US8304447B2, “2-acylaminopropoanol-type glucosylceramide synthase inhibitors” (Genzyme Corporation, priority 2007, dated 2012)
